Reference: patent US20010033888A1, “Crystalline trehalose dihydrate, its preparation and uses” (KABUSHIK KAISHA HAYASHIBARA SEIBUTS KAGAKU KENKYUJO, priority 1998, published 2001)
Several values for one entry are separate records, joined by “and”; a condition that tells them apart may be missing. Equal values may be shown once.

Key:
Type in all cases: physicochemical
[1] = Crystallinity by powdery X-ray diffraction analysis (Ruland method); conditions: pulverized specimen, three specimens each, c axis about 10 mm, tetradodecahedral crystal
Experimental: The crystallinity was determined by pulverizing a specimen and applying the Ruland method in Acta Crystallographica, Vol. 14, p. […] As a control, commercially available crystal sugar with a size equivalent to those of the specimens was examined similarly as above.

[2] = Intrusion disruptive strength by rheometer (needle about 3 mm in diameter); conditions: stage elevated at 6 cm/min, three specimens each, strength when needle ruptures the crystal
Experimental: As a representative polyhedral crystalline trehalose dihydrate having the c axis of about 10 mm, obtained by the methods in the later described Examples A-1 and A-2, three specimens with a tetradodecahedral crystalline structure were used and examined for the crystallinity by powdery X-ray diffraction analysis and the intrusion disruptive strength by rheometer. The crystallinity was determined by pulverizing a specimen and applying the Ruland method in Acta Crystallographica, Vol. 14, p. 1,180 (1961) using “GEIGERFLEX RAD-IIB”, an X-ray diffraction analyzer using Cuka ray commercialized by Rigaku Corporation, Tokyo, Japan, based on the powdery X-ray diffraction intensity. Using “FUDOH RHEO METER NRM-2010J-CW”, a rheometer commercialized by Rheotech Co., Ltd., Tokyo, Japan; and a needle, about 3 mm in diameter, as an adaptor, the intrusion disruptive strength was determined by placing a polyhedral crystal on a specimen stage, elevating the stage to the direction of the needle at a rate of 6 cm/min, and measuring the strength (kg) when the needle intrudes into and ruptures the polyhedral crystal. As a control, commercially available crystal sugar with a size equivalent to those of the specimens was examined similarly as above.

[3] = Hygroscopicity / solidification of the crystal products; conditions: dried crystal product; dihydrate

Crystallinity ([1]; dihydrate) | Intrusion disruptive strength ([2]; dihydrate) | Structure (SMILES) | Hygroscopicity and solidification [3] | Crystallinity [1] | Intrusion disruptive strength [2]
84% and 83% | 4.3 kg and 4.1 kg and 4.0 kg | O.O.OC[C@H]1O[C@H](O[C@H]2O[C@H](CO)[C@@H](O)[C@H](O)[C@H]2O)[C@H](O)[C@@H](O)[C@@H]1O [Example A-1, crystalline trehalose dihydrate] | do not substantially absorb moisture to be solidified | – | –
84% and 83% | 3.8 kg and 3.5 kg | O.O.OC[C@H]1O[C@H](O[C@H]2O[C@H](CO)[C@@H](O)[C@H](O)[C@H]2O)[C@H](O)[C@@H](O)[C@@H]1O [Example A-2, crystalline trehalose dihydrate] | insubstantial hygroscopicity and solidification | – | –
– | – | OC[C@H]1O[C@@](CO)(O[C@H]2O[C@H](CO)[C@@H](O)[C@H](O)[C@H]2O)[C@@H](O)[C@@H]1O [Sugar crystal, reference compound] | – | 84% and 85% | 9.9 kg and 10.0 kg
